Key:
Mer tyrosine kinase = Mer tyrosine kinase (Homo sapiens (Human), UniProt Q12866); experiment: Evaluation of activity against Mer tyrosine kinase; assay type: biochemical
Tyro3 tyrosine kinase = Tyro3 tyrosine kinase (Homo sapiens (Human), UniProt Q06418); experiment: Evaluation of activity against Tyro3 tyrosine kinase; assay type: biochemical
Tyro3 tyrosine kinase, sequence (Q06418 41-890): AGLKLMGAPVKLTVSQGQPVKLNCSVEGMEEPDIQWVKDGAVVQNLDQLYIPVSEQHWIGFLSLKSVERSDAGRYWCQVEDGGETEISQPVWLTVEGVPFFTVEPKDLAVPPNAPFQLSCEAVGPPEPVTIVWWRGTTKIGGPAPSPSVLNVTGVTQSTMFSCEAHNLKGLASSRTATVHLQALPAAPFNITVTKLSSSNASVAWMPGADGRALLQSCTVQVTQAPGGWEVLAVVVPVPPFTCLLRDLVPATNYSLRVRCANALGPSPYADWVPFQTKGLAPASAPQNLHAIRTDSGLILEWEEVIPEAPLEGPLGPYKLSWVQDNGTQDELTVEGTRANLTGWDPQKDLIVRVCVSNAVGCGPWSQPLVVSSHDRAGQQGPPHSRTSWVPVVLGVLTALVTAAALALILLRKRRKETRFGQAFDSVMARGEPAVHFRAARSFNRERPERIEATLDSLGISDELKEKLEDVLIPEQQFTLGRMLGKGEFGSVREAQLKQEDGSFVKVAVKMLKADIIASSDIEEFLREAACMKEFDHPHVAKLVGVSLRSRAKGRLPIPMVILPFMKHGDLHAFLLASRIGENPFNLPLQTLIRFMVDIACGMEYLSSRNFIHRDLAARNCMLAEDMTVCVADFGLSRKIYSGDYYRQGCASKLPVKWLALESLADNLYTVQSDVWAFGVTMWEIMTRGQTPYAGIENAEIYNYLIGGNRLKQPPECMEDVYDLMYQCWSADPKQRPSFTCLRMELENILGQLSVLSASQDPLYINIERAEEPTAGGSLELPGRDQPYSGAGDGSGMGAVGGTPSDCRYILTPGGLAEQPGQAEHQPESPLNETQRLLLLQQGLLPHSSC

Mer tyrosine kinase, sequence (Q12866 21-999): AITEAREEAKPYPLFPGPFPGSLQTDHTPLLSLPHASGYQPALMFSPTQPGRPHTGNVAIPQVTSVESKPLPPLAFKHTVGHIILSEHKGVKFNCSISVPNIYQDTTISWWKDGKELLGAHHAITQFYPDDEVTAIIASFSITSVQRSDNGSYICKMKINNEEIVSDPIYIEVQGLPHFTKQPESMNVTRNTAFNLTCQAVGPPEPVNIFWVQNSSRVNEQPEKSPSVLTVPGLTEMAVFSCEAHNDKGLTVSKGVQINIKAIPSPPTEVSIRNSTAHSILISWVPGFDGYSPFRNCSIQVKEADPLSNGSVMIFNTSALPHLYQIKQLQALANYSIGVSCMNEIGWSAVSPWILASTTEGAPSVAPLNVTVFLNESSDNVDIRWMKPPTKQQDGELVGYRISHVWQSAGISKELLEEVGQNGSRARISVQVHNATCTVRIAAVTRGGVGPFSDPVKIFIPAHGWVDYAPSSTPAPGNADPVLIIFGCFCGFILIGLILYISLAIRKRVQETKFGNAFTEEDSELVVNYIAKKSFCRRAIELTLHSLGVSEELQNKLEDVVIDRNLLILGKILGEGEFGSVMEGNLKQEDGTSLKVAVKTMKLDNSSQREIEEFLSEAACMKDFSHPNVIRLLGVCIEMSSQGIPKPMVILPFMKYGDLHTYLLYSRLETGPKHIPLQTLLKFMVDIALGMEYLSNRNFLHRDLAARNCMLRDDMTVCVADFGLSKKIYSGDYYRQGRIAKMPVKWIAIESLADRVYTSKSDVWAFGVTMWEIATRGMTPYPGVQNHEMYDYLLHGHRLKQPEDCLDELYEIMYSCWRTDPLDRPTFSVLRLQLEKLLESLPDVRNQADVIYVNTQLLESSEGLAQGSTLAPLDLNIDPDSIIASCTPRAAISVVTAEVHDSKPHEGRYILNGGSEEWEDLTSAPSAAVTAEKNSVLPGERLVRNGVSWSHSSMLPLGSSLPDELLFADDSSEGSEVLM

IC50 (Mer tyrosine kinase) | IC50 (Tyro3 tyrosine kinase) | SMILES
< 10 nM | 10 to 100 nM | CCC[C@H](C)Nc1ncc2c(C3CCN(C(=O)c4cc(C)nc(C)c4)CC3)cn([C@H]3CC[C@H](O)CC3)c2n1 [compound 34, (2,6-dimethylpyridin-4-yl)(4-(7-((1R,4S)-4-hydroxycyclohexyl)-2-(((S)-pentan-2-yl)amino)-7H-pyrrolo[2,3-d]pyrimidin-5-yl)piperidin-1-yl)methanone]
< 10 nM | 10 to 100 nM | CCC[C@H](C)Nc1ncc2c(C3CCN(C4CCN(C)CC4)CC3)cn([C@H]3CC[C@H](O)CC3)c2n1 [compound 52, (1S,4R)-4-(5-(1′-methyl-[1,4′-bipiperidin]-4-yl)-2-(((S)-pentan-2-yl)amino)-7H-pyrrolo[2,3-d]pyrimidin-7-yl)cyclohexan-1-ol]
< 10 nM | 10 to 100 nM | CCC[C@H](C)Nc1ncc2c(C3CCN(CC4CCN(C)CC4)CC3)cn([C@H]3CC[C@H](O)CC3)c2n1 [compound 54, (1S,4R)-4-(5-(1-((1-methylpiperidin-4-yl)methyl)piperidin-4-yl)-2-(((S)-pentan-2-yl)amino)-7H-pyrrolo[2,3-d]pyrimidin-7-yl)cyclohexan-1-ol]
< 10 nM | 100 to 1000 nM | CCC[C@H](C)Nc1ncc2c(C3CCN(C(=O)c4nccs4)CC3)cn([C@H]3CC[C@H](O)CC3)c2n1 [compound 57, (4-(7-((1R,4S)-4-hydroxycyclohexyl)-2-(((S)-pentan-2-yl)amino)-7H-pyrrolo[2,3-d]pyrimidin-5-yl)piperidin-1-yl)(thiazol-2-yl)methanone]
< 10 nM | 100 to 1000 nM | CCC[C@H](C)Nc1ncc2c(C3CCN(C(=O)c4ccc[nH]4)CC3)cn([C@H]3CC[C@H](O)CC3)c2n1 [compound 60, (4-(7-((1R,4S)-4-hydroxycyclohexyl)-2-(((S)-pentan-2-yl)amino)-7H-pyrrolo[2,3-d]pyrimidin-5-yl)piperidin-1-yl)(1H-pyrrol-2-yl)methanone]
< 10 nM | 10 to 100 nM | CCC(CC)CNc1ncc2c(C3CCN(C(=O)c4cc(C)nc(C)c4)CC3)cn([C@H]3CC[C@H](O)CC3)c2n1 [compound 69, (2,6-dimethylpyridin-4-yl)(4-(2-((2-ethylbutyl)amino)-7-((1r,4r)-4-hydroxycyclohexyl)-7H-pyrrolo[2,3-d]pyrimidin-5-yl)piperidin-1-yl)methanone]
< 10 nM | 10 to 100 nM | Cc1cc(C(=O)N2CCC(c3cn([C@H]4CC[C@H](O)CC4)c4nc(N[C@@H](C)c5ccc(F)cc5)ncc34)CC2)cc(C)n1 [compound 75, (2,6-dimethylpyridin-4-yl)(4-(2-(((S)-1-(4-fluorophenyl)ethyl)amino)-7-((1R,4S)-4-hydroxycyclohexyl)-7H-pyrrolo[2,3-d]pyrimidin-5-yl)piperidin-1-yl)methanone]
< 10 nM | 100 to 1000 nM | CCC[C@H](C)Nc1ncc2c(C3CCN(C(=O)c4ccc(Cl)cc4)CC3)cn([C@H]3CC[C@H](O)CC3)c2n1 [compound 84, (4-chlorophenyl)(4-(7-((1R,4S)-4-hydroxycyclohexyl)-2-(((S)-pentan-2-yl)amino)-7H-pyrrolo[2,3-d]pyrimidin-5-yl)piperidin-1-yl)methanone]
< 10 nM | 10 to 100 nM | CCC[C@H](C)Nc1ncc2c(C3CCN(C(=O)c4ccc(CN(C)C)cc4)CC3)cn([C@H]3CC[C@H](O)CC3)c2n1 [compound 87, (4-((dimethylamino)methyl)phenyl)(4-(7-((1R,4S)-4-hydroxycyclohexyl)-2-(((S)-pentan-2-yl)amino)-7H-pyrrolo[2,3-d]pyrimidin-5-yl)piperidin-1-yl)methanone]
< 10 nM | 100 to 1000 nM | CCC[C@H](C)Nc1ncc2c(C3CCN(C(=O)c4cc(C)nc(C)c4)CC3)cn([C@H]3CC[C@H](C(F)F)CC3)c2n1 [compound 88, (4-(7-((1R,4S)-4-(difluoromethyl)cyclohexyl)-2-(((S)-pentan-2-yl)amino)-7H-pyrrolo[2,3-d]pyrimidin-5-yl)piperidin-1-yl)(2,6-dimethylpyridin-4-yl)methanone]
< 10 nM | 100 to 1000 nM | C[C@H](Nc1ncc2c(C3CCN(CC4CCCCC4)CC3)cn([C@H]3CC[C@H](O)CC3)c2n1)c1ccccc1 [compound 92, (1S,4R)-4-(5-(1-(cyclohexylmethyl)piperidin-4-yl)-2-(((S)-1-phenylethyl)amino)-7H-pyrrolo[2,3-d]pyrimidin-7-yl)cyclohexan-1-ol]

Second part, the molecule before the results:

SMILES | IC50 (Mer tyrosine kinase) | IC50 (Tyro3 tyrosine kinase)
CCC[C@H](C)Nc1ncc2c(C3CCN(C(=O)c4ccccc4OC)CC3)cn([C@H]3CC[C@H](O)CC3)c2n1 [compound 33, (4-(7-((1R,4S)-4-hydroxycyclohexyl)-2-(((S)-pentan-2-yl)amino)-7H-pyrrolo[2,3-d]pyrimidin-5-yl)piperidin-1-yl)(2-methoxyphenyl)methanone] | < 10 nM | 100 to 1000 nM
CCC[C@H](C)Nc1ncc2c(C3CCN(C(=O)C4CCN(CCF)CC4)CC3)cn([C@H]3CC[C@H](O)CC3)c2n1 [compound 36, (1-(2-fluoroethyl)piperidin-4-yl)(4-(7-((1R,4S)-4-hydroxycyclohexyl)-2-(((S)-pentan-2-yl)amino)-7H-pyrrolo[2,3-d]pyrimidin-5-yl)piperidin-1-yl)methanone] | < 10 nM | 10 to 100 nM
CC[C@H]1C[C@@H]1Nc1ncc2c(C3CCN(C(=O)c4ccncc4)CC3)cn([C@H]3CC[C@H](O)CC3)c2n1 [compound 42, (4-(2-(((1S,2S)-2-ethylcyclopropyl)amino)-7-((1R,4S)-4-hydroxycyclohexyl)-7H-pyrrolo[2,3-d]pyrimidin-5-yl)piperidin-1-yl)(pyridin-4-yl)methanone] | < 10 nM | 100 to 1000 nM
CC[C@@H]1C[C@H]1Nc1ncc2c(C3CCN(C(=O)c4ccncc4)CC3)cn([C@H]3CC[C@H](O)CC3)c2n1 [compound 43, (4-(2-(((1R,2R)-2-ethylcyclopropyl)amino)-7-((1R,4R)-4-hydroxycyclohexyl)-7H-pyrrolo[2,3-d]pyrimidin-5-yl)piperidin-1-yl)(pyridin-4-yl)methanone] | < 10 nM | 100 to 1000 nM
CCC[C@H](C)Nc1ncc2c(C3CCN(C(=O)c4cncs4)CC3)cn([C@H]3CC[C@H](O)CC3)c2n1 [compound 59, (4-(7-((1R,4S)-4-hydroxycyclohexyl)-2-(((S)-pentan-2-yl)amino)-7H-pyrrolo[2,3-d]pyrimidin-5-yl)piperidin-1-yl)(thiazol-5-yl)methanone] | < 10 nM | 10 to 100 nM
CCC[C@H](C)Nc1ncc2c(C3CCN(C(=O)c4cc[nH]c4)CC3)cn([C@H]3CC[C@H](O)CC3)c2n1 [compound 61, (4-(7-((1R,4S)-4-hydroxycyclohexyl)-2-(((S)-pentan-2-yl)amino)-7H-pyrrolo[2,3-d]pyrimidin-5-yl)piperidin-1-yl)(1H-pyrrol-3-yl)methanone] | < 10 nM | 100 to 1000 nM
CCC[C@H](C)Nc1ncc2c(C3CCN(C(=O)c4ncc[nH]4)CC3)cn([C@H]3CC[C@H](O)CC3)c2n1 [compound 62, (4-(7-((1r,4S)-4-hydroxycyclohexyl)-2-(((S)-pentan-2-yl)amino)-7H-pyrrolo[2,3-d]pyrimidin-5-yl)piperidin-1-yl)(1H-imidazol-2-yl)methanone] | < 10 nM | 100 to 1000 nM
Cc1cc(C(=O)N2CCC(c3cn([C@H]4CC[C@H](O)CC4)c4nc(NCCC5CC5)ncc34)CC2)cc(C)n1 [compound 72, (4-(2-((2-cyclopropylethyl)amino)-7-((1R,4R)-4-hydroxycyclohexyl)-7H-pyrrolo[2,3-d]pyrimidin-5-yl)piperidin-1-yl)(2,6-dimethylpyridin-4-yl)methanone] | < 10 nM | 100 to 1000 nM
CCC[C@H](C)Nc1ncc2c(C3CCN(C(=O)c4cc(OC)cc(OC)c4)CC3)cn([C@H]3CC[C@H](O)CC3)c2n1 [compound 80, (3,5-dimethoxyphenyl)(4-(7-((1R,4S)-4-hydroxycyclohexyl)-2-(((S)-pentan-2-yl)amino)-7H-pyrrolo[2,3-d]pyrimidin-5-yl)piperidin-1-yl)methanone] | < 10 nM | 100 to 1000 nM
CCC[C@H](C)Nc1ncc2c(C3CCN(C(=O)c4cc(F)cc(F)c4)CC3)cn([C@H]3CC[C@H](O)CC3)c2n1 [compound 81, (3,5-difluorophenyl)(4-(7-((1R,4S)-4-hydroxycyclohexyl)-2-(((S)-pentan-2-yl)amino)-7H-pyrrolo[2,3-d]pyrimidin-5-yl)piperidin-1-yl)methanone] | < 10 nM | 100 to 1000 nM
CCC[C@H](C)Nc1ncc2c(C3CCN(C(=O)c4ccc(N)cc4)CC3)cn([C@H]3CC[C@H](O)CC3)c2n1 [compound 82, (4-aminophenyl)(4-(7-((1R,4S)-4-hydroxycyclohexyl)-2-(((S)-pentan-2-yl)amino)-7H-pyrrolo[2,3-d]pyrimidin-5-yl)piperidin-1-yl)methanone] | < 10 nM | 100 to 1000 nM
CCC[C@H](C)Nc1ncc2c(C3CCN(C(=O)c4ccc(NC)cc4)CC3)cn([C@H]3CC[C@H](O)CC3)c2n1 [compound 83, (4-(7-((1R,4S)-4-hydroxycyclohexyl)-2-(((S)-pentan-2-yl)amino)-7H-pyrrolo[2,3-d]pyrimidin-5-yl)piperidin-1-yl)(4-(methylamino)phenyl)methanone] | < 10 nM | 10 to 100 nM
CCC[C@H](C)Nc1ncc2c(C3CCN(C(=O)c4ccc(CNC)cc4)CC3)cn([C@H]3CC[C@H](O)CC3)c2n1 [compound 85, (4-(7-((1R,4S)-4-hydroxycyclohexyl)-2-(((S)-pentan-2-yl)amino)-7H-pyrrolo[2,3-d]pyrimidin-5-yl)piperidin-1-yl)(4-((methylamino)methyl)phenyl)methanone] | < 10 nM | 10 to 100 nM
CCC[C@H](C)Nc1ncc2c(C3CCN(C(=O)c4cc(C)nc(C)c4)CC3)cn([C@H]3CC[C@H](CO)CC3)c2n1 [compound 86] | < 10 nM | 10 to 100 nM
CCC[C@H](C)Nc1ncc2c(C3CCN(C(=O)c4ccc(F)cc4)CC3)cn([C@H]3CC[C@H](O)CC3)c2n1 [compound 89, (4-fluorophenyl)(4-(7-((1R,4S)-4-hydroxycyclohexyl)-2-(((S)-pentan-2-yl)amino)-7H-pyrrolo[2,3-d]pyrimidin-5-yl)piperidin-1-yl)methanone] | < 10 nM | 100 to 1000 nM
